Our source for the IC50 values is the Kinase Knowledgebase extract (Sharma et al. 2016).

Each structure is given as a SMILES string. Where only a bound is given, the exact number is not on record here.

The experiment deals with PIK3CD (Human) (UniProt O00329). The experiment in a line: Cell-Based Assay. Conditions: u937.
Sequence of PIK3CD (Human) (O00329 whole entry, looked up): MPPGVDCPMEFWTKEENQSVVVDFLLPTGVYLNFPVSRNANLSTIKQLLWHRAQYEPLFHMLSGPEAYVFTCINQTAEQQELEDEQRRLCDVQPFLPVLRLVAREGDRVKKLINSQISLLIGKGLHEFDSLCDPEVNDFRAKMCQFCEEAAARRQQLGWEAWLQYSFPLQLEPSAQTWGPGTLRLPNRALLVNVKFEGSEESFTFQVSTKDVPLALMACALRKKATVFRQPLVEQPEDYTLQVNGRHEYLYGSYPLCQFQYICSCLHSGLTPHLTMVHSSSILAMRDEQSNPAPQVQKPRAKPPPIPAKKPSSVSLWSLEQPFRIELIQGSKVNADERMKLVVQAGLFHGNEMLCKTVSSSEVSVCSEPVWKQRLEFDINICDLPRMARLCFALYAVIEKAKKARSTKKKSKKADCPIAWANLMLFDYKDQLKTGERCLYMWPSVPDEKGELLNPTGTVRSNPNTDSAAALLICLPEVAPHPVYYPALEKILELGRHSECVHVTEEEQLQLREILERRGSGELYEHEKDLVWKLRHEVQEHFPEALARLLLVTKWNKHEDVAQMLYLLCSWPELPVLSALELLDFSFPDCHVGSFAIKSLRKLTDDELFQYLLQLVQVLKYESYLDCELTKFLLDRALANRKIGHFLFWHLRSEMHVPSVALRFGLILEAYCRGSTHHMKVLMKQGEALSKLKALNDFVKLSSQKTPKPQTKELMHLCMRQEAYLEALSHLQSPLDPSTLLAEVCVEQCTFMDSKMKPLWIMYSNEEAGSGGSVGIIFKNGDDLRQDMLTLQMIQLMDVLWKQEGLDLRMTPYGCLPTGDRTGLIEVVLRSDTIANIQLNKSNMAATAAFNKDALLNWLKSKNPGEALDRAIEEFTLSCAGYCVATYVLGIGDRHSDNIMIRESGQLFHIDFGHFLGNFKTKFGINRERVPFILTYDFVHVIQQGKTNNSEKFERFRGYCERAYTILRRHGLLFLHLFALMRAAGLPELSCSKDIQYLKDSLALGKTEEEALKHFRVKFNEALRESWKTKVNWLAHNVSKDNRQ
Usually IC50 stands for the point on the concentration scale where inhibition reaches its midpoint. Low readings indicate greater potency in that assay, high ones weaker potency in that assay. `Nc1ncnc2c1c(-c1ccc(O)cc1)nn2Cc1nc2cccc(C#CCCCC(=O)NC3CCOCC3)c2c(=O)n1Cc1ccccc1Cl`: the IC50 was < 10 nM.
As to `C#Cc1cccc2nc(Cn3nc(-c4ccc(O)cc4)c4c(N)ncnc43)n(Cc3cccc(OC)c3)c(=O)c12`, the IC50 is < 10 nM.
As for `C#Cc1cccc2nc(Cn3nc(-c4cccc(O)c4)c4c(N)ncnc43)n(Cc3cccc(S(C)(=O)=O)c3)c(=O)c12`, the IC50 was < 10 nM.
Under `C#Cc1cccc2nc(Cn3nc(-c4ccc(O)cc4)c4c(N)ncnc43)n(Cc3c(F)cccc3F)c(=O)c12` stands < 10 nM; under `Nc1ncnc2c1c(-c1ccc(O)cc1)nn2Cc1nc2cccc(C#CCOc3ccccc3)c2c(=O)n1Cc1ccccc1Cl`, < 10 nM.
As for `CN(C)C(=O)CCCC#Cc1cccc2nc(Cn3nc(-c4ccc(O)cc4)c4c(N)ncnc43)n(Cc3ccccc3Cl)c(=O)c12`, the IC50 was < 10 nM.
As for `Nc1ncnc2c1c(-c1cccc(O)c1)nn2Cc1nc2cccc(C#CCOCCN3CCOCC3)c2c(=O)n1Cc1ccccc1Cl`, the IC50 was < 10 nM.
Consider `CN1CCN(C(=O)CCCC#Cc2cccc3nc(Cn4nc(-c5cccc(O)c5)c5c(N)ncnc54)n(Cc4ccccc4Cl)c(=O)c23)CC1`, for which the IC50 was < 10 nM.
Then `C#Cc1cccc2nc(Cn3nc(-c4ccc(O)cc4)c4c(N)ncnc43)n(Cc3ccccc3)c(=O)c12`, with < 10 nM; and `Nc1ncnc2c1c(-c1ccc(O)cc1)nn2Cc1nc2cccc(C#CCCCC(=O)N3CCOCC3)c2c(=O)n1Cc1ccccc1F`, with < 10 nM.
For the compound `C#Cc1cccc2nc(Cn3nc(-c4ccc(O)cc4)c4c(N)ncnc43)n(Cc3ccc(Cl)cc3F)c(=O)c12`, the IC50 is < 10 nM.
As for `Nc1ncnc2c1c(-c1cccc(O)c1)nn2Cc1nc2cccc(C#CCCCC(=O)N3CCOCC3)c2c(=O)n1Cc1ccccc1Cl`, the IC50 was < 10 nM.
Turning to `C#Cc1cccc2nc(Cn3nc(-c4ccc(O)cc4)c4c(N)ncnc43)n(Cc3ccc(C(F)(F)F)cc3)c(=O)c12`, the IC50 is < 10 nM.
Under `C#Cc1cccc2nc(Cn3nc(-c4ccc(O)cc4)c4c(N)ncnc43)n(Cc3cc(C)on3)c(=O)c12` stands < 10 nM; under `NC(=O)NCC#Cc1cccc2nc(Cn3nc(-c4ccc(O)cc4)c4c(N)ncnc43)n(Cc3ccccc3Cl)c(=O)c12`, < 10 nM; under `Nc1ncnc2c1c(-c1cccc(O)c1)nn2Cc1nc2cccc(C#CCCNC(=O)N3CCOCC3)c2c(=O)n1Cc1ccccc1Cl`, < 10 nM.
On to `Nc1ncnc2c1c(-c1ccc(O)cc1)nn2Cc1nc2cccc(C#CCCCC(=O)N3CCCCC3)c2c(=O)n1Cc1ccccc1Cl`, for which the IC50 was < 10 nM.
`C#Cc1cccc2nc(Cn3nc(-c4ccc(O)c(F)c4)c4c(N)ncnc43)n(Cc3ccccc3Cl)c(=O)c12`: the IC50 is < 10 nM.
For `COCC#Cc1cccc2nc(Cn3nc(-c4cccc(O)c4)c4c(N)ncnc43)n(Cc3ccc(Cl)cc3)c(=O)c12`, the IC50 is < 10 nM.
Regarding `C#Cc1cccc2nc(Cn3nc(-c4cccc(O)c4)c4c(N)ncnc43)n(Cc3cc(C)on3)c(=O)c12`, the IC50 is < 10 nM.
As to `Nc1ncnc2c1c(-c1ccc(O)cc1)nn2Cc1nc2cccc(C#CCC3CCCC3)c2c(=O)n1Cc1ccccc1Cl`, the IC50 was < 10 nM.
In the case of `C#Cc1cccc2nc(Cn3nc(-c4cccc(O)c4)c4c(N)ncnc43)n(Cc3cccc(Cl)c3)c(=O)c12`, the IC50 was < 10 nM.
In the case of `COc1cccc(Cn2c(Cn3nc(-c4ccc(O)cc4)c4c(N)ncnc43)nc3cccc(C#CCCCC(=O)N4CCOCC4)c3c2=O)c1F`, the IC50 is < 10 nM.
For the compound `Nc1ncnc2c1c(-c1cccc(O)c1)nn2Cc1nc2cccc(C#CCCCCC(=O)O)c2c(=O)n1Cc1ccccc1Cl`, the IC50 was < 10 nM.
`C#Cc1cccc2nc(Cn3nc(-c4ccc(O)cc4)c4c(N)ncnc43)n(Cc3cccc(Cl)c3)c(=O)c12`: the IC50 is < 10 nM.
Consider `COCCN(CCOC)C(=O)CCCC#Cc1cccc2nc(Cn3nc(-c4ccc(O)cc4)c4c(N)ncnc43)n(Cc3ccccc3Cl)c(=O)c12`, for which the IC50 was < 10 nM.
Consider `C#Cc1cccc2nc(Cn3nc(-c4ccc(O)cc4)c4c(N)ncnc43)n(Cc3ccc(OC)cc3F)c(=O)c12`, for which the 50% inhibitory concentration (IC50) is < 10 nM.
As for `C#Cc1cccc2nc(Cn3nc(-c4cccc(O)c4)c4c(N)ncnc43)n(Cc3ccccc3F)c(=O)c12`, the IC50 was < 10 nM.
As to `C#Cc1cccc2nc(Cn3nc(-c4ccc(O)cc4)c4c(N)ncnc43)n(Cc3ccccc3C(F)(F)F)c(=O)c12`, the IC50 was < 10 nM.
Regarding `COCCN1CCN(C(=O)CCCC#Cc2cccc3nc(Cn4nc(-c5ccc(O)cc5)c5c(N)ncnc54)n(Cc4ccccc4Cl)c(=O)c23)CC1`, the IC50 is < 10 nM.
For the compound `COc1cc(-c2nn(Cc3nc4cccc(C#CCCCC(=O)N5CCOCC5)c4c(=O)n3Cc3ccccc3Cl)c3ncnc(N)c23)ccc1O`, the IC50 was < 10 nM.
Turning to `C#Cc1cccc2nc(Cn3nc(-c4ccc(O)cc4)c4c(N)ncnc43)n(Cc3ccccc3Cl)c(=O)c12`, the IC50 is < 10 nM.
For `CN(C)CCNC(=O)CCCC#Cc1cccc2nc(Cn3nc(-c4ccc(O)cc4)c4c(N)ncnc43)n(Cc3ccccc3Cl)c(=O)c12`, the IC50 was < 10 nM.
Take `Nc1ncnc2c1c(-c1cccc(O)c1)nn2Cc1nc2cccc(C#CCCCC(=O)N3CCOCC3)c2c(=O)n1Cc1ccc2occc2c1`: the IC50 was < 10 nM.
Under `COCC#Cc1cccc2nc(Cn3nc(-c4ccc(O)cc4)c4c(N)ncnc43)n(Cc3cccc(OC)c3)c(=O)c12` stands < 10 nM; under `CN(C)C1CCN(C(=O)CCCC#Cc2cccc3nc(Cn4nc(-c5cccc(O)c5)c5c(N)ncnc54)n(Cc4ccccc4Cl)c(=O)c23)C1` (configuration not stated), 10 to 1000 nM; under `Nc1ncnc2c1c(-c1ccc(O)cc1)nn2Cc1nc2cccc(C#CCCCC(=O)Nc3ccncc3)c2c(=O)n1Cc1ccccc1Cl`, < 10 nM.
On to `Nc1ncnc2c1c(-c1ccc(O)cc1)nn2Cc1nc2cccc(C#CCCCC(=O)N3CCOCC3)c2c(=O)n1Cc1cc2ccccc2s1`, for which the IC50 is < 10 nM.
`Nc1ncnc2c1c(-c1cccc(O)c1)nn2Cc1nc2cccc(C#CCCCCC(=O)N3CCOCC3)c2c(=O)n1Cc1ccccc1Cl`: the IC50 is < 10 nM.
For the compound `C#Cc1cccc2nc(Cn3nc(-c4ccc(O)cc4)c4c(N)ncnc43)n(Cc3ccc(Cl)c(Cl)c3)c(=O)c12`, the IC50 was < 10 nM.
Turning to `N#Cc1cccc(Cn2c(Cn3nc(-c4cccc(O)c4)c4c(N)ncnc43)nc3cccc(C#CCOCCOCCO)c3c2=O)c1`, the IC50 is < 10 nM.
Then `CN(C)C1CCN(C(=O)CCCC#Cc2cccc3nc(Cn4nc(-c5ccc(O)cc5)c5c(N)ncnc54)n(Cc4ccccc4Cl)c(=O)c23)CC1`, with < 10 nM; and `Nc1ncnc2c1c(-c1ccc(O)cc1)nn2Cc1nc2cccc(C#CCOCc3ccccc3)c2c(=O)n1Cc1ccccc1Cl`, with < 10 nM.
Under `C#Cc1cccc2nc(Cn3nc(-c4ccc(O)cc4)c4c(N)ncnc43)n(Cc3ccc(OC)cc3)c(=O)c12` stands < 10 nM; under `COC(=O)c1cccc(Cn2c(Cn3nc(-c4cccc(O)c4)c4c(N)ncnc43)nc3cccc(C#CCCCC(=O)N4CCOCC4)c3c2=O)c1`, < 10 nM.
Take `CC(=O)N1CCN(C(=O)CCCC#Cc2cccc3nc(Cn4nc(-c5ccc(O)cc5)c5c(N)ncnc54)n(Cc4ccccc4Cl)c(=O)c23)CC1`: the IC50 is < 10 nM.
Turning to `Nc1ncnc2c1c(-c1cccc(O)c1)nn2Cc1nc2cccc(C#CCCC(=O)N3CCOCC3)c2c(=O)n1Cc1ccccc1Cl`, the IC50 is < 10 nM.
Then `CN1CCCN(C(=O)CCCC#Cc2cccc3nc(Cn4nc(-c5cccc(O)c5)c5c(N)ncnc54)n(Cc4ccccc4Cl)c(=O)c23)CC1`, with 10 to 1000 nM; and `C#Cc1cccc2nc(Cn3nc(-c4cccc(O)c4)c4c(N)ncnc43)n(Cc3ccc(C(F)(F)F)cc3)c(=O)c12`, with < 10 nM.
Under `C#Cc1cccc2nc(Cn3nc(-c4ccc(O)cc4)c4c(N)ncnc43)n(Cc3ccc(S(C)(=O)=O)cc3)c(=O)c12` stands < 10 nM.
Consider `COCCNC(=O)CCCC#Cc1cccc2nc(Cn3nc(-c4cccc(O)c4)c4c(N)ncnc43)n(Cc3ccccc3Cl)c(=O)c12`, for which the IC50 was < 10 nM.
Under `CN1CCN(CCN(C)C(=O)CCCC#Cc2cccc3nc(Cn4nc(-c5ccc(O)cc5)c5c(N)ncnc54)n(Cc4ccccc4Cl)c(=O)c23)CC1` stands < 10 nM.
Then `Nc1ncnc2c1c(-c1ccc(O)cc1)nn2Cc1nc2cccc(C#CCCCC(=O)NCCN3CCOCC3)c2c(=O)n1Cc1ccccc1Cl`, with < 10 nM; and `Cc1nc(Cn2c(Cn3nc(-c4cccc(O)c4)c4c(N)ncnc43)nc3cccc(C#CCCCC(=O)N4CCOCC4)c3c2=O)cs1`, with < 10 nM.
Then `CN(C)C1CCN(C(=O)CCCC#Cc2cccc3nc(Cn4nc(-c5ccc(O)cc5)c5c(N)ncnc54)n(Cc4ccccc4Cl)c(=O)c23)C1` (configuration not stated), with < 10 nM; and `C#Cc1cccc2nc(Cn3nc(-c4ccc(O)cc4)c4c(N)ncnc43)n(Cc3ccc(C#N)cc3)c(=O)c12`, with < 10 nM.
Turning to `C#Cc1cccc2nc(Cn3nc(-c4ccc(O)cc4)c4c(N)ncnc43)n(Cc3cc(OC)ccc3F)c(=O)c12`, the IC50 was < 10 nM.
Compound `Nc1ncnc2c1c(-c1cccc(O)c1)nn2Cc1nc2cccc(C#CCCCC(=O)Nc3ccncc3)c2c(=O)n1Cc1ccccc1Cl` showed an IC50 of 10 to 1000 nM.
Take `COc1cc(Cn2c(Cn3nc(-c4ccc(O)cc4)c4c(N)ncnc43)nc3cccc(C#CCCCC(=O)N4CCOCC4)c3c2=O)cc(C(F)(F)F)c1`: the IC50 is < 10 nM.
For the compound `C#Cc1cccc2nc(Cn3nc(-c4cccc(O)c4)c4c(N)ncnc43)n(Cc3ccc(S(C)(=O)=O)cc3)c(=O)c12`, the IC50 is < 10 nM.
For the compound `COCCOCCOCC#Cc1cccc2nc(Cn3nc(-c4cccc(O)c4)c4c(N)ncnc43)n(Cc3ccccc3F)c(=O)c12`, the IC50 was < 10 nM.
As to `COCC#Cc1cccc2nc(Cn3nc(-c4ccc(O)cc4)c4c(N)ncnc43)n(Cc3ccccc3Cl)c(=O)c12`, the IC50 was < 10 nM.
In the case of `C#Cc1cccc2nc(Cn3nc(-c4ccc(O)cc4)c4c(N)ncnc43)n(Cc3ccccc3F)c(=O)c12`, the IC50 is < 10 nM.
For `Nc1ncnc2c1c(-c1ccc(O)cc1)nn2Cc1nc2cccc(C#CCCCO)c2c(=O)n1Cc1ccccc1Cl`, the IC50 was < 10 nM.
Turning to `C#Cc1cccc2nc(Cn3nc(-c4ccc(O)cc4)c4c(N)ncnc43)n(Cc3ccc(F)cc3)c(=O)c12`, the IC50 was < 10 nM.
Under `Nc1ncnc2c1c(-c1cccc(O)c1)nn2Cc1nc2cccc(C#CCCCC(=O)N3CCC(N4CCOCC4)CC3)c2c(=O)n1Cc1ccccc1Cl` stands < 10 nM; under `C#Cc1cccc2nc(Cn3nc(-c4ccc(O)cc4)c4c(N)ncnc43)n(Cc3ccc(Cl)cc3)c(=O)c12`, < 10 nM.
